Source: PubChem BioAssay (NCI)
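Compound exposure: 48 hours, 5 concentrations, 96-well plates. TGI marks complete inhibition of growth.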

How the values were obtained:
Test in all cases: inhibition of tumour cell growth, NCI panel, 48 h
[1] = test system: SR leukemia
[2] = test system: KM12 colon
[3] = test system: UACC-257 melanoma
[4] = test system: LOX IMVI melanoma
[5] = test system: OVCAR-4 ovarian
[6] = test system: HS 578T breast
[7] = test system: RXF 393 renal
[8] = test system: HOP-92 NSCLC
[9] = test system: HL-60(TB) leukemia
[10] = test system: NCI-H460 lung
[11] = test system: HT29 colon

O=[N+]([O-])CC(SCc1ccccc1)c1ccc2c(c1)OCO2 (stereo not drawn)
TGI [1]: 8.51 µM | TGI [2]: 19.1 µM | TGI [3]: 16 µM | TGI [4]: 3.39 µM | TGI [5]: 27.1 µM | TGI [6]: 18.2 µM | TGI [7]: 3.63 µM | TGI [8]: 21 µM | TGI [9]: 3.68 µM | TGI [10]: 37.9 µM | TGI [11]: 7.64 µM

COC(=O)C1=NN2c3ccccc3C(=O)OCCC2C1 (stereo not drawn)
TGI [1]: > 100 µM | TGI [2]: > 100 µM | TGI [3]: > 100 µM | TGI [4]: > 100 µM | TGI [5]: > 100 µM | TGI [6]: > 100 µM | TGI [7]: > 100 µM | TGI [8]: > 100 µM | TGI [9]: > 100 µM | TGI [10]: > 100 µM | TGI [11]: > 100 µM

N#Cc1c(=O)c2cc([N+](=O)[O-])ccc2n2c1[nH]c1ccccc12
TGI [1]: 96.6 µM | TGI [2]: > 57.2 µM | TGI [3]: > 72 µM | TGI [4]: > 50.4 µM | TGI [5]: > 100 µM | TGI [6]: > 74.9 µM | TGI [7]: > 100 µM | TGI [8]: > 39 µM | TGI [9]: > 100 µM | TGI [10]: > 89.2 µM | TGI [11]: > 87.9 µM

C[n+]1c2ccccc2c(CNC(CCC(N)=O)C(=O)O)c2ccccc21 (stereo not drawn)
TGI [1]: 3.71 µM | TGI [2]: 9 µM | TGI [3]: 12.9 µM | TGI [4]: 6.64 µM | TGI [5]: 9.24 µM | TGI [6]: 21.8 µM | TGI [7]: 6.18 µM | TGI [8]: 6.96 µM | TGI [9]: 7.65 µM | TGI [10]: 11.8 µM | TGI [11]: 7.01 µM

O=C1Oc2ccccc2C(=O)/C1=C/N1C(=O)/C(=C/c2ccc([N+](=O)[O-])cc2)SC1=S
TGI [1]: > 100 µM | TGI [2]: 52.3 µM | TGI [3]: 90.7 µM | TGI [4]: > 100 µM | TGI [5]: > 100 µM | TGI [6]: 34.3 µM | TGI [7]: 79.3 µM | TGI [8]: 5.71 µM | TGI [9]: > 100 µM | TGI [10]: 57.8 µM | TGI [11]: > 100 µM

O=[N+]([O-])c1ccc(Cl)cc1C1ON=C(c2ccccc2)N1C12CC3CC(CC(C3)C1)C2 (stereo not drawn)
TGI [1]: > 100 µM | TGI [3]: > 100 µM | TGI [4]: > 100 µM | TGI [5]: > 100 µM | TGI [6]: > 100 µM | TGI [7]: > 100 µM | TGI [8]: > 100 µM | TGI [9]: > 100 µM | TGI [10]: > 100 µM | TGI [11]: > 100 µM

OC(c1cccs1)c1cc2ccccc2s1 (stereo not drawn)
TGI [1]: > 10 µM | TGI [2]: > 10 µM | TGI [3]: > 10 µM | TGI [4]: > 10 µM | TGI [5]: > 10 µM | TGI [6]: > 10 µM | TGI [7]: > 10 µM | TGI [8]: > 10 µM | TGI [9]: > 10 µM | TGI [10]: > 10 µM | TGI [11]: > 10 µM

Cc1ccc(C(=O)CC(Cl)=C(Cl)Cl)cc1
TGI [1]: 55.6 µM | TGI [2]: > 100 µM | TGI [3]: > 100 µM | TGI [4]: > 100 µM | TGI [5]: > 100 µM | TGI [6]: > 100 µM | TGI [7]: > 100 µM | TGI [8]: > 100 µM | TGI [9]: > 100 µM | TGI [10]: > 100 µM | TGI [11]: > 100 µM

COC(=O)c1ccc2n1C1CC3CC(CC2C3)C1
TGI [1]: > 100 µM | TGI [2]: > 100 µM | TGI [3]: > 100 µM | TGI [4]: > 100 µM | TGI [5]: > 100 µM | TGI [6]: > 100 µM | TGI [7]: 96.6 µM | TGI [8]: > 100 µM | TGI [9]: 54.7 µM | TGI [10]: > 100 µM | TGI [11]: > 100 µM

COC(=O)NCCc1[nH]nc2c1C(=O)C=C(OC)C2=O
TGI [1]: 36.6 µM | TGI [2]: 41.3 µM | TGI [3]: 28.3 µM | TGI [4]: 33.7 µM | TGI [5]: 35.5 µM | TGI [6]: 88.1 µM | TGI [7]: 31.4 µM | TGI [8]: 37.7 µM | TGI [9]: 44 µM | TGI [10]: > 100 µM | TGI [11]: > 100 µM

Cc1cc(C)c2c(n1)S(=O)(=O)N(CCCN1CCN(c3cccc(C(F)(F)F)c3)CC1)/C(=C(\O)c1ccccc1)C2=O
TGI [1]: 18.7 µM | TGI [2]: 27 µM | TGI [3]: 32.4 µM | TGI [4]: 11.3 µM | TGI [5]: 63.9 µM | TGI [6]: > 100 µM | TGI [7]: 20.9 µM | TGI [8]: 36.8 µM | TGI [9]: 8.97 µM | TGI [10]: 22.3 µM | TGI [11]: 43.9 µM

CCOC(=O)CCC(C(=O)OCC)n1nc2ccc(Nc3c(C)[n+]([O-])c4cc(Cl)ccc4[n+]3[O-])cc2n1 (stereo not drawn)
TGI [1]: > 100 µM | TGI [2]: > 100 µM | TGI [3]: > 100 µM | TGI [4]: > 100 µM | TGI [5]: > 100 µM | TGI [6]: > 100 µM | TGI [7]: > 100 µM | TGI [8]: > 100 µM | TGI [9]: > 100 µM | TGI [10]: 67.4 µM | TGI [11]: > 100 µM

NC1CC2C3CCC2C1C3=O (stereo not drawn)
TGI [1]: > 100 µM | TGI [2]: > 100 µM | TGI [3]: > 100 µM | TGI [4]: > 100 µM | TGI [5]: > 100 µM | TGI [6]: > 100 µM | TGI [7]: > 100 µM | TGI [8]: > 100 µM | TGI [9]: > 100 µM | TGI [10]: > 100 µM | TGI [11]: > 100 µM

CCOC(OCC)C(CC)[Se]c1ccccc1[N+](=O)[O-] (stereo not drawn)
TGI [1]: > 40.1 µM | TGI [2]: 71.4 µM | TGI [3]: > 94.6 µM | TGI [4]: 37.8 µM | TGI [5]: > 100 µM | TGI [6]: > 100 µM | TGI [7]: 5.59 µM | TGI [8]: > 61.1 µM | TGI [9]: 3.22 µM | TGI [10]: 18.6 µM | TGI [11]: 7.31 µM
